≈ marks a conversion by molar mass, not a printed value.
What was measured:
Format in all cases: cell-based
[1] = tested on: Bacillaceae; assay: Minimum inhibitory concentration (MIC), broth dilution; conditions: 24 h; strain 1722
Procedure: (§1) Different bacterial species isolated from patients are employed.
(§2) Compounds AB5 and AB6 are dissolved in ethanol (ethyl alcohol 95°, C. Erba) and all the subsequent dilutions performed in distilled water. The chlorhexidine is diluted from the commercial product already dissolved in distilled water.
(§3) The broth dilution is employed to assess MIC values for all strains. Sterile microtiter plates with U bottom with 96 wells are employed. 0.1 Ml of liquid medium (tryptose Roche broth) are put in each well, the plates are kept at -20° and, before use, at room temperature.
(§4) The disinfectant agent is put in the wells of the row 2 at a concentration of 4000 mcg/ml (real 2000 mcg/ml) and then with a 100 µl micro- pipette dilutions are performed from row 2 to row 11.
(§5) The row 1 is the control of the medium and the row 12 is the control for the fertility of the medium itself.
(§6) After having performed the dilutions, 0.01 ml of a 24 hrs bacterial broth culture (previously diluted at 10^-4 for Gram-negative strains and 10-2 for Gram-positive ones) are placed in all wells, from the rows 2 to 12. After the inoculation, the plate is hermetical ly sealed with adhesive transparent band and an hole is done with a needle. The plates are kept at 35° for 24 hours and a macroscopic reading is carried out; in case of non uniform reading, taking place only for chlorhexidine, the cultures from the wells are plated on agar-heart-brain medium (Sclavo) through Dinatech apparatus (head "Inoculum 96") and the reading of the growth is carried out in the following 24 hours.

[2] = tested on: E.coli; assay: as above; conditions: Escherichia coli, 24 h
Procedure: as §1, §2, §3, §4, §5, §6

[3] = tested on: Enterobacter; assay: as above; conditions: 24 h, strain 2643
Procedure: as §1, §2, §3, §4, §5, §6

[4] = tested on: Indole-positive Proteus; assay: as above; conditions: 24 h
Procedure: as §1, §2, §3, §4, §5, §6

[5] = tested on: Pseudomonas aeruginosa; assay: as above; conditions: 24 h
Procedure: as §1, §2, §3, §4, §5, §6

[6] = tested on: Salmonella sp.; assay: as above; conditions: 24 h, strain 2482
Procedure: as §1, §2, §3, §4, §5, §6

[7] = tested on: Staph. aureus; assay: as above; conditions: Staphylococcus aureus, 24 h; strain 2672
Procedure: as §1, §2, §3, §4, §5, §6

[8] = tested on: E. coli; assay: Bactericide activity at different contact times; design: key to Bactericide action (growth / no growth): + = growth; - = no growth; conditions: 200 p.p.m.
Procedure: as §1, §2
(§7) It is assessed through Dinatech apparatus with "Inoculum 96" head.
(§8) Chemical compounds at established concentra tions are placed in amount of 1 ml in the con tainers, the bacterial inoculum is then added in amount of 0.1 ml (24 hrs culture) and at pre-established times (3,5,10,30,60 and 120 mi nutes), through the head, the mixture compound/ disinfectant agent is transferred in solid medium (agar-heart-brain medium). After incubation at 35°C for 24 hours, the reading is carried out. The tests are repeated in presence of human serum at the concentration of 10%.

[9] = tested on: Indole-positive Proteus; assay: Bactericide activity at different contact times; design: key to Bactericide action (growth / no growth): + = growth; - = no growth; conditions: 200 p.p.m.
Procedure: as §1, §2, §7, §8

[10] = tested on: Serratia marcescens; assay: Bactericide activity at different contact times; design: key to Bactericide action (growth / no growth): + = growth; - = no growth; conditions: 200 p.p.m.
Procedure: as §1, §2, §7, §8

[11] = tested on: Pseudomonas aeruginosa; assay: Bactericide activity at different contact times; design: key to Bactericide action (growth / no growth) / Bactericide activity (growth / no growth), serum interference test: + = growth; - = no growth; conditions: 200 p.p.m.
Procedure: as §1, §2, §7, §8

[12] = tested on: B. subtilis; assay: Bactericide activity at different contact times; design: key: + = growth; - = no growth; conditions: 200 p.p.m.
Procedure: as §1, §2, §7, §8

[13] = tested on: Salmonella sp.; assay: Bactericide activity at different contact times; design: key: + = growth; - = no growth; conditions: 200 p.p.m.
Procedure: as §1, §2, §7, §8

[14] = tested on: Staph. aureus; assay: Bactericide activity at different contact times; design: key: + = growth; - = no growth; conditions: 200 p.p.m.
Procedure: as §1, §2, §7, §8

[15] = tested on: Different bacterial species isolated from patients; assay: Bactericide activity, minimum active concentration on the strains; conditions: Homo sapiens, 24 h
Procedure: as §1
Strains of E. coli, Pseudomonas aeruginosa, indole-positive and negative Proteus, Staphilococcus aureus, Enterobacter, Salmonella sp., Serratia marcescens, B. subtilis and Bacillaceae are investigated.
as §2, §7, §8
For chlorhexidine, the minimum active concentration is 200 p.p.m.

N=C(NCCCCCCNC(=N)NC(=N)Nc1ccc(Cl)cc1)NC(=N)Nc1ccc(Cl)cc1 [Chlorhexidine, N,N'-bis-(4-chlorophenyl)-3,12-diimino-2,4,11,13-tetraazatetradecandiimidamide, reference compound]
MIC [1]: < 0.98 µg/mL | MIC ([2]; strain 2096): 1000 µg/mL (≈ 1980 µM) | MIC ([2]; strain 2117): 1000 µg/mL (≈ 1980 µM) | MIC ([2]; strain 2456): 500 µg/mL (≈ 989 µM) | MIC ([2]; strain 2568): 2000 µg/mL (≈ 3960 µM) | MIC [3]: 2000 µg/mL (≈ 3960 µM) | MIC ([4]; strain 2075): > 1000 µg/mL | MIC ([4]; strain 2083): 1000 µg/mL (≈ 1980 µM) | MIC ([4]; strain 2105): > 1000 µg/mL | MIC ([4]; strain 2410): 2000 µg/mL (≈ 3960 µM) | MIC ([4]; strain 2447): 2000 µg/mL (≈ 3960 µM) | MIC ([4]; strain 2674): > 2000 µg/mL | MIC ([5]; strain 2458): 1000 µg/mL (≈ 1980 µM) | MIC ([5]; strain 2488): 2000 µg/mL (≈ 3960 µM) | MIC ([5]; strain 2508): > 2000 µg/mL | MIC ([5]; strain 2509): 2000 µg/mL (≈ 3960 µM) | MIC ([5]; strain 2670): > 2000 µg/mL | MIC [6]: 500 µg/mL (≈ 989 µM) | MIC [7]: < 0.98 µg/mL | contact time for total bactericide activity [8]: 30 to 120 min | Bactericide action (growth / no growth) ([8]; contact time 3 min): + | Bactericide action (growth / no growth) ([8]; contact time 5 min): + | Bactericide action (growth / no growth) ([8]; contact time 10 min): + | Bactericide action (growth / no growth) ([8]; contact time 30 min): - | Bactericide action (growth / no growth) ([8]; contact time 60 min): - | Bactericide action (growth / no growth) ([8]; contact time 120 min): - | Bactericide action (growth / no growth) ([9]; contact time 3 min): + | Bactericide action (growth / no growth) ([9]; contact time 5 min): + | Bactericide action (growth / no growth) ([9]; contact time 10 min): + | Bactericide action (growth / no growth) ([9]; contact time 30 min): + | Bactericide action (growth / no growth) ([9]; contact time 60 min): + | Bactericide action (growth / no growth) ([9]; contact time 120 min): - | Bactericide action (growth / no growth) ([10]; contact time 3 min): + | Bactericide action (growth / no growth) ([10]; contact time 5 min): + | Bactericide action (growth / no growth) ([10]; contact time 10 min): + | Bactericide action (growth / no growth) ([10]; contact time 30 min): + | Bactericide action (growth / no growth) ([10]; contact time 60 min): - | Bactericide action (growth / no growth) ([10]; contact time 120 min): - | Bactericide action (growth / no growth) ([11]; contact time 3 min): + | Bactericide action (growth / no growth) ([11]; contact time 5 min): + | Bactericide action (growth / no growth) ([11]; contact time 10 min): + | Bactericide action (growth / no growth) ([11]; contact time 30 min): + | Bactericide action (growth / no growth) ([11]; contact time 60 min): - | Bactericide action (growth / no growth) ([11]; contact time 120 min): - | Bactericide action (growth / no growth) ([12]; contact time 3 min): + | Bactericide action (growth / no growth) ([12]; contact time 5 min): + | Bactericide action (growth / no growth) ([12]; contact time 10 min): + | Bactericide action (growth / no growth) ([12]; contact time 30 min): + | Bactericide action (growth / no growth) ([12]; contact time 60 min): - | Bactericide action (growth / no growth) ([12]; contact time 120 min): - | Bactericide action (growth / no growth) ([13]; contact time 3 min): + | Bactericide action (growth / no growth) ([13]; contact time 5 min): + | Bactericide action (growth / no growth) ([13]; contact time 10 min): + | Bactericide action (growth / no growth) ([13]; contact time 30 min): + | Bactericide action (growth / no growth) ([13]; contact time 60 min): - | Bactericide action (growth / no growth) ([13]; contact time 120 min): - | Bactericide action (growth / no growth) ([14]; contact time 3 min): + | Bactericide action (growth / no growth) ([14]; contact time 5 min): + | Bactericide action (growth / no growth) ([14]; contact time 10 min): + | Bactericide action (growth / no growth) ([14]; contact time 30 min): - | Bactericide action (growth / no growth) ([14]; contact time 60 min): - | Bactericide action (growth / no growth) ([14]; contact time 120 min): - | MBC [15]: 200 µg/mL (≈ 396 µM)
